Test results taken from a melting point compilation (Tetko et al.; mined from patent text by program, amines drawn as free bases though some values may be those of a salt).

Row | melting point [°C] | Structure (SMILES)
1 | 92 | CCOC(=O)C(C)Oc1ccc(N(C)c2ncnc3cc(Cl)ccc23)cc1 (stereo unspecified)
2 | 135 | CCOC(=O)C1=C(COCCNc2noc(N)n2)NC(C)=C(C(=O)OC)C1c1ccccc1Cl (stereo unspecified)
3 | 90 | CC(C)(C)OC(=O)C(Nc1ccccc1)c1cccc(F)c1 (racemic)
4 | 106 to 108 | CCCCC(C)(Cc1ccc(OCCNC(=O)c2ccc(-c3ccccn3)cc2)cc1)C(=O)O (stereo unspecified)
5 | 152 to 154 | CCOC(=O)Cc1[nH]c(C(=O)c2ccccc2)c(C)c1C(=O)OCC
6 | 66 to 70 | CCOC(=O)Nc1ccc(Cl)c(N)n1
7 | 259 to 260 | CCNC(=O)c1[nH]c2ccc(Cl)cc2c1S(=O)(=O)c1ccccc1
8 | 130 | Cc1ccc(OCC(CO)NC(C)(C)C)c(-c2ccc(=S)[nH]n2)c1 (stereo unspecified)
9 | 157 to 158 | CC(c1ccc2c(c1)[nH]c1ccccc12)n1ccnc1 (stereo unspecified)
10 | 52 to 54 | COC(=O)c1sc(C)c(C)c1O
11 | 125 | Nc1nc(/C(=N/OCC(=O)OC(c2ccccc2)c2ccccc2)C(=O)O)cs1
12 | 237 to 239 | COC(=O)c1coc(-c2ccc(NS(=O)(=O)c3sc4ccc(Cl)cc4c3C)c(S(C)(=O)=O)c2)n1
13 | 204 to 205 | Cc1ccc(O)c2[nH]c(Cc3ccccc3)nc12
14 | 114 to 116 | COc1ccc(Cc2nc(OCc3ccccc3)cc3cc(OC)c(OC)cc23)cc1OC
15 | 113 to 115 | O=S(=O)(Nc1onc(-c2ccccc2)c1Br)c1ccccc1
16 | 91 | CON=C(C#N)C(=O)NC(=O)NCCCCCC(=O)OC
17 | 99 to 109 | CCCCNS(=O)(=O)C[C@@H](O)C(O)[C@@H](CC1CCCCC1)NC(=O)[C@@H](N)CC(C)C (relative stereo)
18 | 147 to 148 | CC(C)(C)OC(=O)CN1CCN(c2ccncc2)C1=O
19 | 194 to 196 | O=C(Nc1ccccc1Oc1ccc(Cl)cc1Cl)C1CCN(S(=O)(=O)c2cc(Cl)ccc2Cl)CC1
20 | 164 to 165 | COC(=O)[C@H]1[C@@H]2CC[C@@](NC(=O)OC(C)(C)C)(C(=O)O)[C@@H]21
21 | 285 | Cc1ccc(N2C(=O)C(O)=C(C(=O)c3ccc(C(C)C)cc3)C2c2ccc(Cn3nccn3)cc2)nn1 (stereo unspecified)
22 | 157 | COc1cc(-c2nc3ccccc3n2Cc2c(Cl)cccc2Cl)cc(OC)c1OC
23 | 230 to 232 | O=c1[nH]c2cc(Cl)cc(Cl)c2c(=O)n1CCc1ccccc1
24 | 69 to 71 | O=c1oc(-c2ccccc2)cc(O)c1C(CC1CC1)SC1CCCCC1 (stereo unspecified)
25 | 130 to 132 | C[C@]1(c2ccccc2)C[C@@]1(NS(=O)(=O)c1ccc(-c2cc(C(F)(F)F)on2)s1)C(=O)O

Row | melting point [°C] | Structure (SMILES)
26 | 90 to 93 | COC(=O)C1=C(C)NC(C)=C(C(=O)OCCN2CCN(C(c3ccc(F)cc3)c3ccc(F)cc3)CC2)C1c1cccc(Cl)c1Cl (stereo unspecified)
27 | 146 | COC(=O)c1ccc([C@H]2CCN(C(=O)OC(C)(C)C)C[C@@H]2O)cc1 (racemic)
28 | 194 to 195 | Nc1cc(C(=O)O)cc(S(N)(=O)=O)c1NCCc1ccccc1
29 | 80 to 83 | Fc1c(F)c(F)c(OC2(c3ccccc3)CCN(Cc3ccccc3)CC2)c(F)c1F
30 | 78 | COc1ccc([N+](=O)[O-])cc1CBr
31 | 157 to 159 | Cc1cnc(C)n2c1c(CCSC1=NCCN1)c1ccccc12
32 | 124 to 127 | CCOC(=O)C(C)(C(=O)Nc1cc(Cl)cc(Cl)c1)S(C)=O (stereo unspecified)
33 | 321 | CCC(=O)Nc1cccc2c1C(=O)c1cccc(NC(=O)CC)c1C2=O
34 | 104 to 105 | CCCC1=C(c2ccccc2)[C@@H](c2ccccc2)OC1=O
35 | 85 to 86 | CCC(=O)C(CCCCCl)NC(=O)c1ccc(C)cc1 (stereo unspecified)
36 | 106 to 108 | CCCC(=O)c1cc2nc(C(=O)OCC)n(C)c2cc1C
37 | 130 | CCCCCCCC(=O)N(C)Cc1cccc(-c2ccc(CC3SC(=O)NC3=O)cc2C)c1 (stereo unspecified)
38 | 87 to 89 | CCOC(=O)c1ccc(OCCCCC(=O)c2ccc(Cl)s2)cc1
39 | 271 | CC(=O)N1CCN(C(=O)OC2C3=C(SCCS3)C(=O)N2c2ccc3ccc(Cl)nc3n2)CC1 (stereo unspecified)
40 | 196 to 198 | CN1C2=C(CSC2)C(=O)Nc2ccccc21
41 | 150 to 152 | Cc1ccc2[nH]c(C(=O)OCc3ccccc3)cc2c1
42 | 201 to 203 | CC(C)(C)[C@@H](CO)NC(=O)[C@@H](CC(=O)OCc1ccccc1)n1ccc(-c2ccc(-c3ccc(C(N)=O)cc3)cc2)c1
43 | 79 to 82 | C=CCCCCc1ccc(C(=O)O)cc1
44 | 168 to 170 | COC(=O)C(Cc1ccccc1)NC(=O)C(N)(CC(=O)O)NC(=O)C(C)C (stereo unspecified)
45 | 145 to 149 | CC(C)Cn1c(C(C)O)nc2c(N)nc3ccccc3c21 (stereo unspecified)
46 | 162 | NC(=O)[C@H]1CCCN1C(c1ccccc1)(c1ccccc1)c1ccccc1
47 | 53 to 55 | CC(O)c1cc2c(s1)C(C)(C)CCC2(C)C (stereo unspecified)
48 | 162 to 164 | O=C(NCC1(c2ccccc2)CCCCC1)Nc1ccccc1
49 | 169 to 170 | O=C(O)Cn1ncc(-c2ccccc2)c1-c1ccccc1
50 | 147 to 152 | COC(=O)c1cn(C(c2ccccc2)(c2ccccc2)c2ccccc2)cn1

The next lines start with the compound.

Row | Structure (SMILES) | melting point [°C]
51 | OCCCNc1cc(-n2cccn2)nc(-c2cccs2)n1 | 130 to 131
52 | CNC(=O)[C@H]1CN(c2cc(F)c(N3CCOCC3)c(F)c2)C(=O)O1 | 179 to 181
53 | O=C(Nc1ccc(Oc2ccccc2)cc1)N1CCN(c2ncnc3cc(F)c(F)cc23)CC1 | 177 to 178
54 | CCOC(=O)N1CCC2CN(c3c(F)cc4c(=O)c(C(=O)O)cn(C5CC5)c4c3F)CC21 (stereo unspecified) | 191 to 192
55 | Cc1ccc(S(=O)(=O)Oc2ccc(F)cc2Cl)cc1 | 92 to 94
56 | CCCCc1nc2ccccc2n1Cc1ccc(-c2ccccc2-c2nnn[nH]2)cc1 | 230 to 232
57 | C(=Cc1nc(CNc2ccc(CCCCn3ccnn3)cc2)co1)c1ccc2c(c1)OCO2 | 130 to 131
58 | C/C=C/c1cc(OC)c2c(c1)[C@@H](C)[C@H](c1cc(CO)c(O)c(OC)c1)O2 (relative stereo) | 117 to 119
59 | Cc1ccc(Oc2ccc(C(=O)c3ccc(Oc4ccc(C)c(C)c4)cc3)cc2)cc1C | 68 to 69
60 | CS(=O)(=O)Nc1cc(F)cc(F)c1 | 121
61 | OCCc1c[nH]c2cc(Cl)c(Cl)cc12 | 65 to 67
62 | COc1cc(/C=C/C(=O)/C=C/c2cc(OC)c(O)c(OC)c2)cc(OC)c1O | 166 to 168
63 | CSc1nc(N)c(C=O)s1 | 159 to 162
64 | c1ccc(-n2c(C3=NCCN3)cc3ccccc32)cc1 | 180 to 182
65 | O=C1Nc2ccc(-c3ccc(Cl)cc3)cc2C1=O | 246 to 252
66 | C=CCSc1nsc(S)n1 | 107 to 108
67 | CCOC(=O)C(=CNC1CC1)C(=O)c1c(F)c(OC(F)F)c(F)c(F)c1[N+](=O)[O-] | 105 to 106
68 | NS(=O)(=O)c1cccc(-c2cccc(-c3nc(-c4ccc(Cl)cc4)cc(C(F)(F)F)n3)c2)c1 | 165
69 | c1ccc(C(c2ccccc2)N2CCN(CCCOc3ccc4nncn4n3)CC2)cc1 | 132 to 134
70 | c1cc(Sc2cccc3cnccc23)c2ccncc2c1 | 138 to 140
71 | Cc1cc(S(=O)(=O)Nc2onc(C)c2Br)c(C)s1 | 77 to 80
72 | CC(=O)Nc1nc2c(Oc3cc(N4CCN(C(C)c5ccc(F)cc5)CC4)ncn3)cccc2o1 (stereo unspecified) | 200
73 | Cc1nc(C(O)(c2nc(C)c(C)s2)C(F)(F)F)sc1C | 122 to 124
74 | CN(C)CCCNc1ncc2c(n1)-c1ccccc1C(c1cccc(Br)c1)C2 (stereo unspecified) | 120 to 122
75 | C#CCc1ccc2onc3c2c1OCC=N3 | 104 to 106
76 | O=Cc1ccc(Sc2nc3cc(F)c(F)cc3[nH]2)o1 | 133

Row | Structure (SMILES) | melting point [°C]
77 | Cc1cc(-c2ccc(S(N)(=O)=O)cc2)n(-c2ccc(S(C)=O)cc2)c1 (stereo unspecified) | 249 to 251
78 | COc1ccc(CN2C(=O)C(O)(c3ccncc3Cl)c3cc(Cl)ccc32)c(OC)c1 (stereo unspecified) | 215
79 | CC1(C)CC(OC(=O)CCCCCCCCC(=O)OC2CC(C)(C)N(OC3CCCCC3)C(C)(C)C2)CC(C)(C)N1OC1CCCCC1 | 56 to 59
80 | Brc1ccn2nc(N3CCOCC3)nc2c1 | 178 to 179
81 | Cc1ccc2c(c1)C1=NN(C(=O)c3cccnc3)CC1CO2 (stereo unspecified) | 177 to 178
82 | COC(=O)C1(CF)C=NN(C)N1 (stereo unspecified) | 64 to 66
83 | Cc1cc2c3c(c1)NC(=O)c1ccccc1N3CC2 | 222 to 224
84 | COc1ccc2[nH]cc(C3CCC(=O)CC3)c2c1 | 103 to 106
85 | O=[N+]([O-])c1ccc2c(c1)N(C1CCN(CCc3ccc(F)cc3)CC1)CC2 | 104 to 106
86 | O=C(C=Cc1c(Cl)cccc1Cl)N1CCc2c([nH]c3ccccc23)C1c1ccc2c(c1)OCO2 (stereo unspecified) | 118 to 120
87 | Cc1noc(NS(=O)(=O)c2ccccc2-c2ccc(-c3ccncn3)cc2)c1C | 211 to 214
88 | CCOCCc1ccc(OCCNc2ncnc(COC)c2Cl)c(C)c1 | 39 to 41
89 | Cc1c(-c2ccc3c(c2)OCO3)n(Cc2ccc(OCCN3CCCCC3)cc2)c2ccc(O)cc12 | 122 to 125
90 | COc1ccc(-c2nnc(N3CCN(C)CC3)nc2-c2ccc(OC)cc2)cc1 | 158 to 160
91 | Cc1cc2nc(SCC(F)(F)F)[nH]c2cc1C | 150 to 163
92 | CSc1ccc(C(=O)CBr)c(F)c1 | 55 to 59
93 | CCCC1C(O)=CC(=O)N1c1ccc(C#N)c(Cl)c1 (stereo unspecified) | 156 to 158
94 | N#Cc1ccc(-c2cc3ccccc3[nH]2)cc1 | 201
95 | CC1OC(O)CC(O)C1O (stereo unspecified) | 102 to 105
96 | N#Cc1cnn2c1N(C(=O)CCl)CC=C2c1ccc(Cl)cc1 | 198 to 199
97 | O=C(OCc1ccc(OCCCCCCc2ccc(Cl)cc2)cc1)c1cccnc1 | 56 to 57
98 | CC(=O)NC[C@H]1CN(c2ccc(-n3nccc3-c3ccc(F)cc3)c(F)c2)C(=O)O1 | 111 to 113
99 | CC(O)=C1SC(=S)N(c2ccc(Cl)cc2)C1=O | 200 to 205
100 | Cc1cnc(-c2ccc(O)cc2)o1 | 177 to 178
101 | CCOc1nc(C)nc(N)n1 | 172 to 174
